Columns and labels:
Assay type in all cases: in vivo
Chenopodium album [1] = test: Test Example 4: herbicidal effect by soil treatment (symbol O); conditions: application herbicide amount 320 g/ha
How it was run: (§1)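 Seeds were sown in sterilized diluvial soil, covered with about 1.5 cm of soil, and the soil surface was sprayed with a water-diluted emulsion of the compound at a predetermined rate. Plants grew in a greenhouse at 25° C. to 30° C.; effects were scored visually 3 weeks after application.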

Chenopodium album [2] = test: Test Example 5: herbicidal effect by foliage application, plastic box (symbol O); conditions: 320 g/ha, 3 weeks after application
How it was run: (§2)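 Leaf-applied emulsion, water-diluted to a preset herbicide dose, on two-week-old seedlings raised in a 25° C. to 30° C. greenhouse; injury rated at 3 weeks using earlier criteria.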

Avena fatua = test: Test Example 5: herbicidal effect by foliage application, plastic box (symbol I); conditions: 320 g/ha, 3 weeks after application
How it was run: as §2

rice plant = test: Test Example 5: effect on crop by foliage application, plastic box (symbol b); conditions: 320 g/ha, 3 weeks after application
How it was run: (§3)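 A greenhouse held between 25° C. and 30° C. was used to grow plants sown spot-wise, beneath ~1.5 cm of soil, in boxes of sterilized diluvial soil.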

Stellaria media = test: Test Example 4: herbicidal effect by soil treatment (symbol P); conditions: application herbicide amount 320 g/ha
How it was run: as §1

Amaranthus retroflexus = test: Test Example 4: herbicidal effect by soil treatment (symbol N); conditions: application herbicide amount 320 g/ha
How it was run: as §1

beet = test: Test Example 5: effect on crop by foliage application, plastic box (symbol f); conditions: 320 g/ha, 3 weeks after application
How it was run: as §3

Setaria viridis [3] = test: Test Example 4: herbicidal effect by soil treatment (symbol G); conditions: application herbicide amount 320 g/ha
How it was run: as §1

Galium spurium = test: Test Example 4: herbicidal effect by soil treatment (symbol Q); conditions: application herbicide amount 320 g/ha
How it was run: as §1

[4] = tested on: Echinochloa oryzacola Vasing.; test: Test Example 2: herbicidal activity, application during weed generation in submerged conditions (symbol A); conditions: Table 23; application herbicide amount 320 g/ha; grade 0-5 by criteria of Test Example 1
How it was run: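 Each pot contained alluvial soil under 4 cm of water with seeds of all three weeds sown together. Following growth at 25° C. to 30° C. to the one- to two-leaf stage, the floodwater received diluted emulsion at a predetermined amount; visual assessment followed at 3 weeks.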

Setaria viridis [5] = test: Test Example 5: herbicidal effect by foliage application, plastic box (symbol G); conditions: 320 g/ha, 3 weeks after application
How it was run: as §2

Veronica persica = test: Test Example 4: herbicidal effect by soil treatment (symbol R); conditions: application herbicide amount 320 g/ha
How it was run: as §1

Monochoria vaginalis = test: Test Example 1: herbicidal activity, application before weed generation in submerged conditions (symbol C); conditions: application herbicide amount 320 g/ha
How it was run: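 Pre-emergence, paddy conditions: emulsifiable formulation diluted in water, dosed onto floodwater (4 cm depth) on sowing day. Alluvial soil; weeds sown mixed; rice transplanted at 2.5-leaf stage. Greenhouse 25–30 °C, 3 wk. Score 0–5 (5 = ≥90% kill, 0 = ≤5%).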

Apera spica-venti = test: Test Example 4: herbicidal effect by soil treatment (symbol L); conditions: application herbicide amount 320 g/ha
How it was run: as §1

Row | SMILES | Herbicidal effect grade, O: Chenopodium album (Chenopodium album [1]) | O: Chenopodium album, herbicidal effect grade (Chenopodium album [2]) | I: Avena fatua, herbicidal effect grade (Avena fatua) | b: directly sowed rice plant, effect on crop grade (rice plant) | Herbicidal effect grade, P: Stellaria media (Stellaria media) | Herbicidal effect grade, N: Amaranthus retroflexus (Amaranthus retroflexus) | f: beet, effect on crop grade (beet) | Herbicidal effect grade, G: Setaria viridis (Setaria viridis [3]) | Herbicidal effect grade, Q: Galium spurium (Galium spurium) | Herbicidal effect grade, A: Echinochloa oryzacola Vasing. [4] | G: Setaria viridis, herbicidal effect grade (Setaria viridis [5]) | Herbicidal effect grade, R: Veronica persica (Veronica persica) | Herbicidal effect grade, C: Monochoria vaginalis (Monochoria vaginalis) | O (Chenopodium album) herbicidal effect grade (Chenopodium album [1]) | N (Amaranthus retroflexus) herbicidal effect grade (Amaranthus retroflexus) | G (Setaria viridis) herbicidal effect grade (Setaria viridis [3]) | Q (Galium spurium) herbicidal effect grade (Galium spurium) | L (Apera spica-venti) herbicidal effect grade (Apera spica-venti) | P (Stellaria media) herbicidal effect grade (Stellaria media) | Herbicidal effect grade, L: Apera spica-venti (Apera spica-venti) | other results
1 | CC(CC1CC(O)=C(c2c(C)cc(Br)cc2C)C1=O)=NOCC(=O)N(C)C (mixture of isomers) [9-029] | 0 (Herbicidal ratio of 5% or lower (almost no effect)) | 0 (Herbicidal ratio of 5% or lower (almost no effect)) | 5 (Herbicidal ratio of 90% or more (almost completely withered)) | 3 (Herbicidal ratio of 40% or higher and lower than 70%) | 0 (Herbicidal ratio of 5% or lower (almost no effect)) | 0 (Herbicidal ratio of 5% or lower (almost no effect)) | 0 (Herbicidal ratio of 5% or lower (almost no effect)) | 4 (Herbicidal ratio of 70% or higher and lower than 90%) | 0 (Herbicidal ratio of 5% or lower (almost no effect)) | 0 (Herbicidal ratio of 5% or lower (almost no effect)) | 3 (Herbicidal ratio of 40% or higher and lower than 70%) | 0 (Herbicidal ratio of 5% or lower (almost no effect)) | – | – | – | – | – | – | – | – | –
2 | CON=C(C)CC1CC(OC(=O)C(C)(C)OC(C)=O)=C(c2c(C)cc(C)cc2C)C1=O (stereo not shown) [1-034] | – | 5 (Herbicidal ratio of 90% or more (almost completely withered)) | 5 (Herbicidal ratio of 90% or more (almost completely withered)) | 5 (Herbicidal ratio of 90% or more (almost completely withered)) | – | – | 4 (Herbicidal ratio of 70% or higher and lower than 90%) | – | – | 5 (Herbicidal ratio of 90% or more (almost completely withered)) | 5 (Herbicidal ratio of 90% or more (almost completely withered)) | – | 2 (Herbicidal ratio of 20% or higher and lower than 40%) | 5 (Herbicidal ratio of 90% or more (almost completely withered)) | 5 (Herbicidal ratio of 90% or more (almost completely withered)) | 5 (Herbicidal ratio of 90% or more (almost completely withered)) | 4 (Herbicidal ratio of 70% or higher and lower than 90%) | 5 (Herbicidal ratio of 90% or more (almost completely withered)) | – | – | –
3 | CON=C(CC1CC(O)=C(c2c(C)cc(C)cc2C)C1=O)c1ccccc1 (stereo not shown) [1-047] | – | 0 (Herbicidal ratio of 5% or lower (almost no effect)) | 0 (Herbicidal ratio of 5% or lower (almost no effect)) | 4 (Herbicidal ratio of 70% or higher and lower than 90%) | – | – | 0 (Herbicidal ratio of 5% or lower (almost no effect)) | – | – | 2 (Herbicidal ratio of 20% or higher and lower than 40%) | 1 (Herbicidal ratio of 5% or higher and lower than 20%) | – | 0 (Herbicidal ratio of 5% or lower (almost no effect)) | 0 (Herbicidal ratio of 5% or lower (almost no effect)) | 0 (Herbicidal ratio of 5% or lower (almost no effect)) | 0 (Herbicidal ratio of 5% or lower (almost no effect)) | 0 (Herbicidal ratio of 5% or lower (almost no effect)) | 0 (Herbicidal ratio of 5% or lower (almost no effect)) | 0 (Herbicidal ratio of 5% or lower (almost no effect)) | – | R (Veronica persica) herbicidal effect grade (Veronica persica): 0 (Herbicidal ratio of 5% or lower (almost no effect))
4 | CON=C(C)CC1CC(OC(=O)C(C)(C)Oc2ccc(Cl)cc2)=C(c2c(C)cc(C)cc2C)C1=O (stereo not shown) [1-051] | – | 0 (Herbicidal ratio of 5% or lower (almost no effect)) | 5 (Herbicidal ratio of 90% or more (almost completely withered)) | 5 (Herbicidal ratio of 90% or more (almost completely withered)) | – | – | 0 (Herbicidal ratio of 5% or lower (almost no effect)) | – | – | 5 (Herbicidal ratio of 90% or more (almost completely withered)) | 5 (Herbicidal ratio of 90% or more (almost completely withered)) | – | 0 (Herbicidal ratio of 5% or lower (almost no effect)) | 0 (Herbicidal ratio of 5% or lower (almost no effect)) | 4 (Herbicidal ratio of 70% or higher and lower than 90%) | 5 (Herbicidal ratio of 90% or more (almost completely withered)) | 0 (Herbicidal ratio of 5% or lower (almost no effect)) | 5 (Herbicidal ratio of 90% or more (almost completely withered)) | 0 (Herbicidal ratio of 5% or lower (almost no effect)) | – | –
5 | CC(=O)CC1CC(O)=C(c2c(C)cc(-c3ncccn3)cc2C)C1=O (stereo not shown) [7-017] | 0 (Herbicidal ratio of 5% or lower (almost no effect)) | – | – | – | 0 (Herbicidal ratio of 5% or lower (almost no effect)) | 0 (Herbicidal ratio of 5% or lower (almost no effect)) | – | 0 (Herbicidal ratio of 5% or lower (almost no effect)) | 0 (Herbicidal ratio of 5% or lower (almost no effect)) | – | – | 0 (Herbicidal ratio of 5% or lower (almost no effect)) | – | – | – | – | – | – | – | 0 (Herbicidal ratio of 5% or lower (almost no effect)) | O: Chenopodium album, herbicidal effect (criteria of Test Example 1) (Chenopodium album [2]): 0 (Herbicidal ratio of 5% or lower (almost no effect)); I: Avena fatua, herbicidal effect (criteria of Test Example 1) (Avena fatua): 0 (Herbicidal ratio of 5% or lower (almost no effect)); b: directly sowed rice plant, effect on crop (criteria of Test Example 1) (rice plant): 5 (Herbicidal ratio of 90% or more (almost completely withered)); f: beet, effect on crop (criteria of Test Example 1) (beet): 0 (Herbicidal ratio of 5% or lower (almost no effect)); G: Setaria viridis, herbicidal effect (criteria of Test Example 1) (Setaria viridis [5]): 5 (Herbicidal ratio of 90% or more (almost completely withered))
6 | CON=C(CC1CC(O)=C(c2c(C)cc(-n3cc(Cl)cn3)cc2C)C1=O)C(C)C (stereo not shown) [9-004] | 0 (Herbicidal ratio of 5% or lower (almost no effect)) | 1 (Herbicidal ratio of 5% or higher and lower than 20%) | 5 (Herbicidal ratio of 90% or more (almost completely withered)) | – | 0 (Herbicidal ratio of 5% or lower (almost no effect)) | 0 (Herbicidal ratio of 5% or lower (almost no effect)) | 0 (Herbicidal ratio of 5% or lower (almost no effect)) | 5 (Herbicidal ratio of 90% or more (almost completely withered)) | 0 (Herbicidal ratio of 5% or lower (almost no effect)) | 5 (Herbicidal ratio of 90% or more (almost completely withered)) | 5 (Herbicidal ratio of 90% or more (almost completely withered)) | 0 (Herbicidal ratio of 5% or lower (almost no effect)) | 0 (Herbicidal ratio of 5% or lower (almost no effect)) | – | – | – | – | – | – | 5 (Herbicidal ratio of 90% or more (almost completely withered)) | –
